Assay results from ChEMBL document CHEMBL3112480, “γ-Alkylidene-γ-lactones and isobutylpyrrol-2(5H)-ones analogues to rubrolides as inhibitors of biofilm formation by gram-positive and gram-negative bacteria” (Bioorg Med Chem Lett, 2014).
In brackets after ≈: the same amount, converted by molar mass.

Tests used:
Streptococcus mutans [1] = experiment: Antibacterial activity against Streptococcus mutans ATCC 25175 assessed as effect on planktonic growth at 21.9 ug/ml after 20 hrs relative to control; type: functional
Streptococcus mutans [2] = experiment: Antibacterial activity against Streptococcus mutans ATCC 25175 assessed as effect on planktonic growth at 43.8 ug/ml after 20 hrs relative to control; type: functional
Streptococcus mutans [3] = experiment: Antibacterial activity against Streptococcus mutans ATCC 25175 assessed as effect on planktonic growth at 87.5 ug/ml after 20 hrs relative to control; type: functional
Staphylococcus aureus [4] = experiment: Antibacterial activity against Staphylococcus aureus ATCC 25923 assessed as effect on planktonic growth at 0.17 ug/ml after 20 hrs relative to control; type: functional
Staphylococcus aureus [5] = experiment: Antibacterial activity against Staphylococcus aureus ATCC 25923 assessed as effect on planktonic growth at 0.34 ug/ml after 20 hrs relative to control; type: functional
Staphylococcus aureus [6] = experiment: Antibacterial activity against Staphylococcus aureus ATCC 25923 assessed as effect on planktonic growth at 0.68 ug/ml after 20 hrs relative to control; type: functional
Staphylococcus aureus [7] = experiment: Antibacterial activity against Staphylococcus aureus ATCC 25923 assessed as effect on planktonic growth at 1.37 ug/ml after 20 hrs relative to control; type: functional
Staphylococcus aureus [8] = experiment: Antibacterial activity against Staphylococcus aureus ATCC 25923 assessed as effect on planktonic growth at 5.5 ug/ml after 20 hrs relative to control; type: functional
Staphylococcus aureus [9] = experiment: Antibacterial activity against Staphylococcus aureus ATCC 25923 assessed as effect on planktonic growth at 2.73 ug/ml after 20 hrs relative to control; type: functional
Staphylococcus aureus [10] = experiment: Antibacterial activity against Staphylococcus aureus ATCC 25923 assessed as effect on planktonic growth at 10.9 ug/ml after 20 hrs relative to control; type: functional
Staphylococcus aureus [11] = experiment: Antibacterial activity against Staphylococcus aureus ATCC 25923 assessed as effect on planktonic growth at 21.9 ug/ml after 20 hrs relative to control; type: functional
Staphylococcus aureus [12] = experiment: Antibacterial activity against Staphylococcus aureus ATCC 25923 assessed as effect on planktonic growth at 43.8 ug/ml after 20 hrs relative to control; type: functional
Staphylococcus aureus [13] = experiment: Antibacterial activity against Staphylococcus aureus ATCC 25923 assessed as effect on planktonic growth at 87.5 ug/ml after 20 hrs relative to control; type: functional
Pseudomonas aeruginosa [14] = experiment: Antibacterial activity against Pseudomonas aeruginosa ATCC 27853 assessed as effect on planktonic growth at 0.17 ug/ml after 20 hrs relative to control; type: functional
Pseudomonas aeruginosa [15] = experiment: Antibacterial activity against Pseudomonas aeruginosa ATCC 27853 assessed as effect on planktonic growth at 0.34 ug/ml after 20 hrs relative to control; type: functional
Pseudomonas aeruginosa [16] = experiment: Antibacterial activity against Pseudomonas aeruginosa ATCC 27853 assessed as effect on planktonic growth at 0.68 ug/ml after 20 hrs relative to control; type: functional
Pseudomonas aeruginosa [17] = experiment: Antibacterial activity against Pseudomonas aeruginosa ATCC 27853 assessed as effect on planktonic growth at 1.37 ug/ml after 20 hrs relative to control; type: functional
Pseudomonas aeruginosa [18] = experiment: Antibacterial activity against Pseudomonas aeruginosa ATCC 27853 assessed as effect on planktonic growth at 2.73 ug/ml after 20 hrs relative to control; type: functional
Pseudomonas aeruginosa [19] = experiment: Antibacterial activity against Pseudomonas aeruginosa ATCC 27853 assessed as effect on planktonic growth at 5.5 ug/ml after 20 hrs relative to control; type: functional
Pseudomonas aeruginosa [20] = experiment: Antibacterial activity against Pseudomonas aeruginosa ATCC 27853 assessed as effect on planktonic growth at 10.9 ug/ml after 20 hrs relative to control; type: functional
Pseudomonas aeruginosa [21] = experiment: Antibacterial activity against Pseudomonas aeruginosa ATCC 27853 assessed as effect on planktonic growth at 21.9 ug/ml after 20 hrs relative to control; type: functional
Pseudomonas aeruginosa [22] = experiment: Antibacterial activity against Pseudomonas aeruginosa ATCC 27853 assessed as effect on planktonic growth at 43.8 ug/ml after 20 hrs relative to control; type: functional
Pseudomonas aeruginosa [23] = experiment: Antibacterial activity against Pseudomonas aeruginosa ATCC 27853 assessed as effect on planktonic growth at 87.5 ug/ml after 20 hrs relative to control; type: functional
[24] = tested on: Staphylococcus epidermidis; experiment: Antibacterial activity against Staphylococcus epidermidis ATCC 35547 assessed as effect on planktonic growth at 0.17 ug/ml after 20 hrs relative to control; type: functional
[25] = tested on: Staphylococcus epidermidis; experiment: Antibacterial activity against Staphylococcus epidermidis ATCC 35547 assessed as effect on planktonic growth at 0.34 ug/ml after 20 hrs relative to control; type: functional
[26] = tested on: Staphylococcus epidermidis; experiment: Antibacterial activity against Staphylococcus epidermidis ATCC 35547 assessed as effect on planktonic growth at 0.68 ug/ml after 20 hrs relative to control; type: functional
[27] = tested on: Staphylococcus epidermidis; experiment: Antibacterial activity against Staphylococcus epidermidis ATCC 35547 assessed as effect on planktonic growth at 1.37 ug/ml after 20 hrs relative to control; type: functional
[28] = tested on: Staphylococcus epidermidis; experiment: Antibacterial activity against Staphylococcus epidermidis ATCC 35547 assessed as effect on planktonic growth at 2.73 ug/ml after 20 hrs relative to control; type: functional
[29] = tested on: Staphylococcus epidermidis; experiment: Antibacterial activity against Staphylococcus epidermidis ATCC 35547 assessed as effect on planktonic growth at 5.5 ug/ml after 20 hrs relative to control; type: functional
[30] = tested on: Staphylococcus epidermidis; experiment: Antibacterial activity against Staphylococcus epidermidis ATCC 35547 assessed as effect on planktonic growth at 10.9 ug/ml after 20 hrs relative to control; type: functional
[31] = tested on: Staphylococcus epidermidis; experiment: Antibacterial activity against Staphylococcus epidermidis ATCC 35547 assessed as effect on planktonic growth at 21.9 ug/ml after 20 hrs relative to control; type: functional
[32] = tested on: Staphylococcus epidermidis; experiment: Antibacterial activity against Staphylococcus epidermidis ATCC 35547 assessed as effect on planktonic growth at 43.8 ug/ml after 20 hrs relative to control; type: functional
[33] = tested on: Staphylococcus epidermidis; experiment: Antibacterial activity against Staphylococcus epidermidis ATCC 35547 assessed as effect on planktonic growth at 87.5 ug/ml after 20 hrs relative to control; type: functional
Pseudomonas aeruginosa [34] = experiment: Antibacterial activity against Pseudomonas aeruginosa ATCC 27853 assessed as inhibition of biofilm formation after 20 hrs by crystal-violet staining method; type: functional, organism-based; conditions: for IC50: ATCC 27853, 20 h
[35] = tested on: Staphylococcus epidermidis; experiment: Antibacterial activity against Staphylococcus epidermidis ATCC 35547 assessed as inhibition of biofilm formation after 20 hrs by crystal-violet staining method; type: functional, organism-based; conditions: for IC50: ATCC 35547, 20 h
Streptococcus mutans [36] = experiment: Antibacterial activity against Streptococcus mutans ATCC 25175 assessed as effect on planktonic growth at 0.17 ug/ml after 20 hrs relative to control; type: functional
Streptococcus mutans [37] = experiment: Antibacterial activity against Streptococcus mutans ATCC 25175 assessed as effect on planktonic growth at 0.34 ug/ml after 20 hrs relative to control; type: functional
Streptococcus mutans [38] = experiment: Antibacterial activity against Streptococcus mutans ATCC 25175 assessed as effect on planktonic growth at 0.68 ug/ml after 20 hrs relative to control; type: functional
Streptococcus mutans [39] = experiment: Antibacterial activity against Streptococcus mutans ATCC 25175 assessed as effect on planktonic growth at 1.37 ug/ml after 20 hrs relative to control; type: functional
Streptococcus mutans [40] = experiment: Antibacterial activity against Streptococcus mutans ATCC 25175 assessed as effect on planktonic growth at 2.73 ug/ml after 20 hrs relative to control; type: functional
Streptococcus mutans [41] = experiment: Antibacterial activity against Streptococcus mutans ATCC 25175 assessed as effect on planktonic growth at 5.5 ug/ml after 20 hrs relative to control; type: functional
Streptococcus mutans [42] = experiment: Antibacterial activity against Streptococcus mutans ATCC 25175 assessed as effect on planktonic growth at 10.9 ug/ml after 20 hrs relative to control; type: functional

For `COc1ccc(Br)cc1C1=C(Br)C(=O)N(CC(C)C)/C1=C/c1cccc(Cl)c1`, the Activity (Streptococcus mutans [1]) was -7.5%, the Activity (Streptococcus mutans [2]) was 2.5% and the Activity (Streptococcus mutans [3]) was -7.3%. It also gave an Activity (Staphylococcus aureus [4]) of -18.7%, an Activity (Staphylococcus aureus [5]) of -17.1% and an Activity (Staphylococcus aureus [6]) of -19.6%. It also gave an Activity (Staphylococcus aureus [7]) of -17.8%, an Activity (Staphylococcus aureus [8]) of -16% and an Activity (Staphylococcus aureus [9]) of -14%. The Activity (Staphylococcus aureus [10]) was -11.9%, the Activity (Staphylococcus aureus [11]) was -13.1% and the Activity (Staphylococcus aureus [12]) was -5.2%. For the same compound, the Activity (Staphylococcus aureus [13]) was 12.8%, the Activity (Pseudomonas aeruginosa [14]) was 1.8% and the Activity (Pseudomonas aeruginosa [15]) was -3.3%. It also gave an Activity (Pseudomonas aeruginosa [16]) of 3.4%, an Activity (Pseudomonas aeruginosa [17]) of 5% and an Activity (Pseudomonas aeruginosa [18]) of 4.7%. It also gave an Activity (Pseudomonas aeruginosa [19]) of -4%, an Activity (Pseudomonas aeruginosa [20]) of -7% and an Activity (Pseudomonas aeruginosa [21]) of -4.5%. It also gave an Activity (Pseudomonas aeruginosa [22]) of -3.2%, an Activity (Pseudomonas aeruginosa [23]) of 15.5% and an Activity [24] of 2.1%. For the same compound, the Activity [25] was 4.9%, the Activity [26] was 4.8% and the Activity [27] was 1%. The Activity [28] was 11.4%, the Activity [29] was 21.1% and the Activity [30] was 10.8%. It also gave an Activity [31] of 27.7%, an Activity [32] of 56.1% and an Activity [33] of 70.2%. The inhibition (Pseudomonas aeruginosa [34]) was “Dose-dependent effect”, the IC50 (Pseudomonas aeruginosa [34]) was > 87.5 µg/mL and the inhibition [35] was “Dose-dependent effect”. For the same compound, the IC50 [35] was 46.7 µg/mL (≈ 88.8 µM), the Activity (Streptococcus mutans [36]) was 6% and the Activity (Streptococcus mutans [37]) was 7%. The Activity (Streptococcus mutans [38]) was -6.5%, the Activity (Streptococcus mutans [39]) was 15.3% and the Activity (Streptococcus mutans [40]) was 12.6%. For the same compound, the Activity (Streptococcus mutans [41]) was 2.8% and the Activity (Streptococcus mutans [42]) was 8.3%.
Compound `COc1ccc(Br)cc1C1=C(Br)C(=O)N(CC(C)C)/C1=C\c1ccc(Br)cc1` has an Activity (Streptococcus mutans [1]) of -14.6%, an Activity (Streptococcus mutans [2]) of -31.4% and an Activity (Streptococcus mutans [3]) of -15.8%. It also gave an Activity (Staphylococcus aureus [4]) of -3.9%, an Activity (Staphylococcus aureus [5]) of 0.3% and an Activity (Staphylococcus aureus [6]) of -0.5%. It also gave an Activity (Staphylococcus aureus [7]) of -0.5%, an Activity (Staphylococcus aureus [8]) of -2.1% and an Activity (Staphylococcus aureus [9]) of -2.4%. For the same compound, the Activity (Staphylococcus aureus [10]) was 1%, the Activity (Staphylococcus aureus [11]) was 0.8% and the Activity (Staphylococcus aureus [12]) was 5.5%. For the same compound, the Activity (Staphylococcus aureus [13]) was 6%, the Activity (Pseudomonas aeruginosa [14]) was 4.1% and the Activity (Pseudomonas aeruginosa [15]) was 0.3%. It also gave an Activity (Pseudomonas aeruginosa [16]) of -0.2%, an Activity (Pseudomonas aeruginosa [17]) of 1% and an Activity (Pseudomonas aeruginosa [18]) of 0.8%. The Activity (Pseudomonas aeruginosa [19]) was 0.6%, the Activity (Pseudomonas aeruginosa [20]) was -2.6% and the Activity (Pseudomonas aeruginosa [21]) was -1.3%. It also gave an Activity (Pseudomonas aeruginosa [22]) of 3.4%, an Activity (Pseudomonas aeruginosa [23]) of 12.6% and an Activity [24] of 3.3%. The Activity [25] was 14.1%, the Activity [26] was 10% and the Activity [27] was 5.7%. It also gave an Activity [28] of 11.2%, an Activity [29] of 0.9% and an Activity [30] of 12.3%. It also gave an Activity [31] of 32.6%, an Activity [32] of 78.7% and an Activity [33] of 88.4%. For the same compound, the inhibition (Pseudomonas aeruginosa [34]) was “Dose-dependent effect”, the IC50 (Pseudomonas aeruginosa [34]) was > 87.5 µg/mL and the inhibition [35] was “Dose-dependent effect”. For the same compound, the IC50 [35] was 67.5 µg/mL (≈ 118 µM), the Activity (Streptococcus mutans [36]) was 6% and the Activity (Streptococcus mutans [37]) was -0.3%. The Activity (Streptococcus mutans [38]) was 5.8%, the Activity (Streptococcus mutans [39]) was 8.3% and the Activity (Streptococcus mutans [40]) was -5.3%. For the same compound, the Activity (Streptococcus mutans [41]) was -3.3% and the Activity (Streptococcus mutans [42]) was -5%.
